Test system: female rats
Experiment: Anti-gonadotropic activity: ovary weight after 14 days of oral administration, test group compared with control group
Type: in vivo
Design: key: -: no effective; +: effective; ++: very effective
Conditions: suspended in 10 % ethanol-containing cotton seed oil, ovary weight vs control group
Procedure: Each compound obtained in Examples and suspended in a 10 % ethanol-containing cotton seed oil was orally administrated to female rats in a dose of 0.1, 1 or 10 mg/kg for 14 days. While, for the control group, only the cotton seed oil was orally administrated for the same period.
After the completion of the administration, the ovary of each rat was weighted. From the comparison of the weight in the test group with that in the control group, the anti-gonadotropic activity of the gonatriene compound of this invention was evaluated.

Row | SMILES | anti-gonadotropic activity (0.1 mg/kg for 14 days) | anti-gonadotropic activity (1 mg/kg for 14 days) | anti-gonadotropic activity (10 mg/kg for 14 days)
1 | CC[C@]12C=CC3=C4CCC(=O)C=C4CC[C@H]3[C@@H]1CC[C@@]2(O)CCl [Example 4, 17α-chloromethyl-17β-hydroxy-13β-ethyl-gona-4,9,11-triene-3-one] | - | + | ++
2 | CC[C@]12C=CC3=C4CCC(=O)C=C4CC[C@H]3[C@@H]1CC[C@@]2(O)COC [Example 6, 17α-methoxymethyl-17β-hydroxy-13β-ethyl-gona-4,9,11-triene-3-one] |  |  | ++
3 | CC[C@]12C=CC3=C4CCC(=O)C=C4CC[C@H]3[C@@H]1CC[C@@]2(O)CSC#N [Example 9, 17α-thiocyanatemethyl-17β-hydroxy-13βethyl-gona-4,9,11-triene-3-one] |  | ++ | ++
4 | C[C@]12C=CC3=C4CCC(=O)C=C4CC[C@H]3[C@@H]1CC[C@@]2(O)CC#N [Example 2, 17α-cyanomethyl-17β-hydroxy-13β-methyl-gona-4,9,11-triene-3-one] | - | + | ++
5 | CC[C@]12C=CC3=C4CCC(=O)C=C4CC[C@H]3[C@@H]1CC[C@@]2(O)CSC [Example 7, 17α-methylthiomethyl-17β-hydroxy-13β-ethyl-aona-4.9.11-triene-3-one] | - |  | ++
6 | CC[C@]12C=CC3=C4CCC(=O)C=C4CC[C@H]3[C@@H]1CC[C@@]2(O)CC#N [Example 3, 17α-cyanomethyl-17β-hydroxy-13β-ethyl-gona-4,9,11-triene-3-one] | - | + | ++
7 | C[C@]12C=CC3=C4CCC(=O)C=C4CC[C@H]3[C@@H]1CC[C@@]2(O)CCl [Example 1, 17α-chloromethyl-17β-hydroxy-13β-methyl-gona-4.9.11-triene-3-one] | - |  | ++

Reference: patent publication EP0231671B1, “Gonatriene derivatives and process for preparing them” (MITSUBISHI KASEI CORPORATION, priority 1985, dated 1987)
